From the supplement of paper PMC4977894
Where a name gives a salt, the structure may show the parent alone. ± gives the standard deviation of the averaged measurements.

Key:
[1] = tested on: Homo sapiens (human subject panel, olfactory perception); experiment: perceived odor familiarity rating (rating 0-100); higher = more familiar
In short: (§1)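 Stimuli were molecules diluted in paraffin oil at high and low concentrations, with 1 mL of each sniffed in randomized order across ten visits of 100 stimuli. Participants were 55 healthy humans aged 18–50, excluding the six lowest performers. Subjects who smelled a stimulus moved a computerized slider away from its starting point of 50, and positions were rescaled to 0–100. Familiarity, intensity and pleasantness are each reported as an average over subjects.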

[2] = tested on: Homo sapiens (human subject panel, olfactory perception); experiment: perceived odor pleasantness rating (rating 0-100); higher = more pleasant
In short: as §1

[3] = tested on: Homo sapiens (human subject panel, olfactory perception); experiment: perceived odor intensity rating (rating 0-100); higher = stronger perceived smell
In short: as §1

[4] = odor dilution in paraffin oil: 1/10
[5] = odor dilution in paraffin oil: 1/1,000
[6] = odor dilution in paraffin oil: 1/100,000
[7] = odor dilution in paraffin oil: 1/10,000,000

SMILES | perceived odor familiarity rating [1, 4] | perceived odor familiarity rating [1, 5] | perceived odor pleasantness rating [2, 4] | perceived odor pleasantness rating [2, 5] | perceived odor intensity rating [3, 4] | perceived odor intensity rating [3, 5] | perceived odor familiarity rating [1, 6] | perceived odor pleasantness rating [2, 6] | perceived odor intensity rating [3, 6] | perceived odor familiarity rating [1, 7] | perceived odor pleasantness rating [2, 7] | perceived odor intensity rating [3, 7]
CC1CCC(=O)C1=O (stereo not given) [Methylcyclopentenolone] | 63 ± 33 | 52.5 ± 34 | 35.8 ± 32 | 44.6 ± 30 | 84.7 ± 18 | 72 ± 26 |  |  |  |  |  | 
CCCCCCCC(=O)OCCCCC [N-Amyl octanoate] |  | 42.3 ± 27 |  | 48.4 ± 23 |  | 37.1 ± 26 | 25.1 ± 28 | 58.8 ± 24 | 19.5 ± 28 |  |  | 
CC(C)=CCC/C(C)=C\CO [Nerol] |  | 60.3 ± 30 |  | 61.4 ± 24 |  | 71.1 ± 22 | 39.8 ± 33 | 48.8 ± 28 | 24.3 ± 27 |  |  | 
COc1ccc2ccccc2c1 [Nerolin Yara Yara] | 59.7 ± 28 | 58 ± 26 | 54.3 ± 29 | 61.6 ± 26 | 82.7 ± 15 | 71.5 ± 22 |  |  |  |  |  | 
CC(=O)OC/C=C(/C)CCC=C(C)C [Neryl acetate] | 49.1 ± 28 | 35.6 ± 28 | 49.9 ± 26 | 43 ± 18 | 67.2 ± 26 | 14.7 ± 20 |  |  |  |  |  | 
CCCCCCCCCOC(C)=O [Nonyl acetate] | 46.8 ± 29 | 39 ± 30 | 34.1 ± 27 | 39.9 ± 19 | 77.8 ± 18 | 37.1 ± 28 |  |  |  |  |  | 
CC(=O)OCCC1=CCC2CC1C2(C)C (stereo not given) [Nopol acetate] |  | 54.9 ± 30 |  | 70.6 ± 21 |  | 53.6 ± 29 | 52.7 ± 31 | 66.6 ± 25 | 40.7 ± 28 |  |  | 
CCCCCCCC [Octane] | 46.3 ± 29 | 27.3 ± 26 | 53.2 ± 25 | 44.1 ± 25 | 59.6 ± 31 | 13.9 ± 20 |  |  |  |  |  | 
CCCCCCCC(=O)O [Octanoic acid] |  | 52.1 ± 33 |  | 26.6 ± 19 |  | 68.6 ± 26 | 45.3 ± 32 | 35.2 ± 20 | 49.5 ± 33 |  |  | 
CCCCCCCCOC(=O)C(C)C [Octyl isobutyrate] |  | 38.9 ± 27 |  | 55.8 ± 21 |  | 29.9 ± 26 | 36 ± 31 | 53.4 ± 20 | 17.7 ± 20 |  |  | 
CCCCCCCCOC(=O)CC(C)C [Octyl isovalerate] |  | 35.1 ± 30 |  | 39.4 ± 22 |  | 28.9 ± 33 | 38.3 ± 33 | 54.1 ± 21 | 23.4 ± 28 |  |  | 
O=C1CCCCCCCCCCCCCCO1 [Omega-Pentadecalactone] | 58.9 ± 28 | 32 ± 24 | 73.5 ± 19 | 54.1 ± 23 | 57 ± 27 | 23 ± 29 |  |  |  |  |  | 
O=C(OCCc1ccccc1)c1ccco1 [Phenethyl 2-furoate] |  | 52.4 ± 37 |  | 58.7 ± 25 |  | 44.8 ± 31 | 40.5 ± 34 | 50.6 ± 24 | 24.1 ± 30 |  |  | 
CC(=O)OCCc1ccccc1 [Phenethyl acetate] |  | 59.1 ± 32 |  | 54.9 ± 28 |  | 62.1 ± 28 | 52.2 ± 34 | 56.9 ± 24 | 38.2 ± 32 |  |  | 
Nc1ccccc1C(=O)OCCc1ccccc1 [Phenethyl anthranilate] | 50.1 ± 32 | 27.7 ± 23 | 56.9 ± 24 | 48.2 ± 19 | 39.9 ± 32 | 15.1 ± 20 |  |  |  |  |  | 
O=C(OCCc1ccccc1)c1ccccc1 [Phenethyl benzoate] | 47.1 ± 31 | 24.1 ± 21 | 53.6 ± 24 | 49.4 ± 17 | 38 ± 27 | 19.6 ± 22 |  |  |  |  |  | 
O=C(Cc1ccccc1)OCCc1ccccc1 [Phenethyl phenylacetate] |  | 32.8 ± 26 |  | 53.4 ± 23 |  | 42.5 ± 33 | 31.6 ± 32 | 52.9 ± 23 | 17.2 ± 24 |  |  | 
CCC(=O)OCCc1ccccc1 [Phenethyl propionate] |  | 54.6 ± 32 |  | 54.6 ± 27 |  | 49.9 ± 34 | 51.1 ± 30 | 52.6 ± 25 | 26.4 ± 27 |  |  | 

SMILES | perceived odor familiarity rating [1, 4] | perceived odor familiarity rating [1, 5] | perceived odor pleasantness rating [2, 4] | perceived odor pleasantness rating [2, 5] | perceived odor intensity rating [3, 4] | perceived odor intensity rating [3, 5] | perceived odor familiarity rating [1, 6] | perceived odor pleasantness rating [2, 6] | perceived odor intensity rating [3, 6] | perceived odor familiarity rating [1, 7] | perceived odor pleasantness rating [2, 7] | perceived odor intensity rating [3, 7]
O=C(OCCc1ccccc1)c1ccccc1O [Phenethyl salicylate] | 38.8 ± 29 | 33.8 ± 29 | 58.9 ± 22 | 49.2 ± 22 | 37.3 ± 31 | 17.8 ± 25 |  |  |  |  |  | 
NCCc1ccccc1 [Phenethylamine] |  | 46.8 ± 34 |  | 29.1 ± 28 |  | 62.9 ± 34 | 38.8 ± 26 | 48 ± 25 | 22.8 ± 26 |  |  | 
c1ccc(SSc2ccccc2)cc1 [Phenyl disulfide] |  | 47.2 ± 29 |  | 26.6 ± 23 |  | 61.2 ± 26 | 43.5 ± 29 | 28.3 ± 25 | 52.5 ± 30 |  |  | 
C/C(=C\CO)CCC[C@H](C)CCC[C@H](C)CCCC(C)C [Phytol] | 47.1 ± 32 | 25.4 ± 33 | 28.1 ± 21 | 44.2 ± 30 | 68.8 ± 26 | 19.8 ± 26 |  |  |  |  |  | 
C1CCNCC1 [Piperidine] |  | 53.6 ± 36 |  | 13.2 ± 18 |  | 76.5 ± 24 | 39.4 ± 29 | 48.2 ± 24 | 28.6 ± 31 |  |  | 
O=C(/C=C/C=C/c1ccc2c(c1)OCO2)N1CCCCC1 [Piperine] | 49.2 ± 31 | 20.9 ± 26 | 51.5 ± 26 | 44.9 ± 29 | 54.1 ± 29 | 19.4 ± 27 |  |  |  |  |  | 
CC(C)C(=O)OCc1ccc2c(c1)OCO2 [Piperonyl isobutyrate] |  | 38.4 ± 29 |  | 48.3 ± 25 |  | 29.4 ± 27 | 30.2 ± 25 | 43.1 ± 18 | 26.4 ± 30 |  |  | 
CCCOC(=O)CC [Propyl propionate] |  | 50.4 ± 32 |  | 44.4 ± 26 |  | 72.1 ± 21 | 33.7 ± 27 | 48.7 ± 25 | 22.9 ± 25 |  |  | 
CC(O)CO (stereo not given) [Propylene glycol] | 52.2 ± 30 | 33.7 ± 29 | 46.2 ± 25 | 42.5 ± 25 | 45.8 ± 34 | 10.5 ± 13 |  |  |  |  |  | 
SCCc1cnccn1 [Pyrazineethanethiol] |  |  |  |  |  |  | 37.2 ± 33 | 45.4 ± 26 | 33.8 ± 38 | 29.8 ± 25 | 49.2 ± 20 | 23.6 ± 22
C1CCNC1 [Pyrrolidine] |  |  |  |  |  |  | 28.9 ± 29 | 40.7 ± 19 | 26.9 ± 26 | 37.2 ± 27 | 37.5 ± 22 | 26.6 ± 24
CC(=O)C(=O)O [Pyruvic Acid] |  | 52.1 ± 29 |  | 39.1 ± 28 |  | 70.6 ± 23 | 44.5 ± 29 | 53.4 ± 24 | 37.7 ± 32 |  |  | 
c1ccc2ncccc2c1 [Quinoline] |  | 47.7 ± 34 |  | 22.4 ± 24 |  | 80.7 ± 18 | 41.4 ± 26 | 34.1 ± 24 | 56.4 ± 27 |  |  | 
O.O.O=P([O-])([O-])O.[Na+].[Na+] [Sodium phosphate dibasic] | 40.5 ± 32 | 31.5 ± 24 | 63.4 ± 26 | 46.2 ± 26 | 27.2 ± 27 | 24.1 ± 25 |  |  |  |  |  | 
O=C(O)CCC(=O)O [Succinic acid] | 35.5 ± 25 | 35.5 ± 32 | 34.6 ± 24 | 36.1 ± 21 | 46.2 ± 35 | 32.3 ± 27 |  |  |  |  |  | 
CC1=CCC(C(C)(C)OC=O)CC1 (stereo not given) [Terpinyl formate] |  | 45.6 ± 31 |  | 37.8 ± 26 |  | 42.2 ± 30 | 28.1 ± 26 | 46.9 ± 30 | 14.6 ± 20 |  |  | 
CC(=O)OCC1CCCO1 (stereo not given) [Tetrahydrofurfuryl acetate] |  | 42.4 ± 28 |  | 40.6 ± 26 |  | 55.6 ± 24 | 27.8 ± 24 | 49.1 ± 26 | 17 ± 24 |  |  | 
